Square brackets hold non-standard residues; d marks the D form. Peptide text beside a SMILES is read from it. * marks the point of attachment. Nicotinoyl(1-Me-1,4-dihydro) = CN1C=CCC(C(=O)*)=C1; X1 = CC(C)CCC(C)C1CCC2C3CC=C4CC(O*)CCC4(C)C3CCC12C; pGlu = O=C1CC[C@@H](C(=O)O)N1

The experiment relates to Mus musculus. Put plainly: Barbiturate-induced sleeping time in mice after the administration of the compound. Type of experiment: functional.
As for `CC(C)C[C@H](NC(=O)[C@@H]1CCC(=O)N1)C(=O)N1CCC[C@H]1C(N)=O` ([pGlu]-Leu-Pro-NH2), the Sleeping time amounted to 45.5 min. As for `CC(C)CCC(C)C1CCC2C3CC=C4CC(OC(=O)CNC(=O)[C@@H]5CCCN5C(=O)[C@H](CC(C)C)NC(=O)[C@H](CCC(N)=O)NC(=O)[C@H](C)NC(=O)[C@H](C)NC(=O)C5=CN(C)C=CC5)CCC4(C)C3CCC12C` (some centres not stated) ({Nicotinoyl(1-Me-1,4-dihydro)}-AAQLPG-X1), the figure is 37 min. The same measure for `CC(C)CCC(C)C1CCC2C3CC=C4CC(OC(=O)CNC(=O)[C@@H]5CCCN5C(=O)[C@H](CC(C)C)NC(=O)[C@H](CCC(N)=O)NC(=O)[C@@H]5CCCN5C(=O)[C@H](C)NC(=O)C5=CN(C)C=CC5)CCC4(C)C3CCC12C` (some centres not stated) ({Nicotinoyl(1-Me-1,4-dihydro)}-APQLPG-X1): 35 min; for `CC(C)CCC(C)C1CCC2C3CC=C4CC(OC(=O)CNC(=O)[C@@H]5CCCN5C(=O)[C@H](CC(C)C)NC(=O)[C@H](CCC(N)=O)NC(=O)[C@H](C)NC(=O)C5=CN(C)C=CC5)CCC4(C)C3CCC12C` (some centres not stated) ({Nicotinoyl(1-Me-1,4-dihydro)}-AQLPG-X1): 38 min. `CC(C)CCC(C)C1CCC2C3CC=C4CC(OC(=O)CNC(=O)[C@@H]5CCCN5C(=O)[C@H](CC(C)C)NC(=O)[C@H](CCC(N)=O)NC(=O)[C@H](C)NC(=O)[C@@H]5CCCN5C(=O)C5=CN(C)C=CC5)CCC4(C)C3CCC12C` (some centres not stated) ({Nicotinoyl(1-Me-1,4-dihydro)}-PAQLPG-X1) gave a Sleeping time of 24.3 min.

`CC(C)CCC(C)C1CCC2C3CC=C4CC(OC(=O)CNC(=O)[C@@H]5CCCN5C(=O)[C@H](CC(C)C)NC(=O)[C@H](CCC(N)=O)NC(=O)[C@@H]5CCCN5C(=O)[C@@H]5CCCN5C(=O)C5=CN(C)C=CC5)CCC4(C)C3CCC12C` (some centres not stated) ({Nicotinoyl(1-Me-1,4-dihydro)}-PPQLPG-X1) came in with a Sleeping time of 26.8 min. Turning to `CC(C)CCC(C)C1CCC2C3CC=C4CC(OC(=O)CNC(=O)[C@@H]5CCCN5C(=O)[C@H](CC(C)C)NC(=O)[C@H](CCC(N)=O)NC(=O)[C@@H]5CCCN5C(=O)C5=CN(C)C=CC5)CCC4(C)C3CCC12C` (some centres not stated) ({Nicotinoyl(1-Me-1,4-dihydro)}-PQLPG-X1), the Sleeping time worked out at 29.2 min.

The values above are taken from ChEMBL document CHEMBL1132463, “Metabolism-based brain-targeting system for a thyrotropin-releasing hormone analogue” (1999).
